Laboratory results taken from patent publication US9023789B2, “Amylin analogs and pharmaceutical compositions thereof” (Novo Nordisk A/S, priority 2012, dated 2015).
≈ marks a conversion by molar mass, not a printed value. Read-outs that look alike come from different tables or passages of the source. Numbered stars: 1 amine (or outer) side, 2 acyl side, 3 side chain; on linkers, the order of the positions; unused ones are H or OH. Bridge positions count the residues as written; N and C are the ends. Side chains are listed from the residue outwards. Peptide text beside a SMILES is read from it. * marks the point of attachment. C20 diacid = O=C(O)CCCCCCCCCCCCCCCCCCC(=O)*; γGlu = O=C(O)[C@H](CCC(=O)[*:2])N[*:1]; AEEA = NCCOCCOCC(=O)O

How the values were obtained:
[1] = ASSAY (III) ThT fibrillation assay for physical stability; format: physicochemical
In short: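 Formulations with 1 μM ThT, pH adjusted as required, incubated at 37 °C with 960 rpm orbital shaking; fluorescence (ex 444/em 485 nm) read every 20 min. Fibrillation reported as mean ThT fluorescence ± SD of 4–8 replicates at time points; polypeptide concentration measured by reverse-phase HPLC before and after, post-centrifugation.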

[2] = target: T1, rat calcitonin receptor (Rattus norvegicus, UniProt P32214); assay: ASSAY (VIII) binding to the rat calcitonin receptor; conditions: Table 7, read-out: rCTR bind IC50
T1 construct: expressed in transfected cells; host or cells: BHK tk'ts 13 (transient, FuGENE 6), membranes
T1 sequence (P32214 25-479 isoform P32214-2 limits assumed): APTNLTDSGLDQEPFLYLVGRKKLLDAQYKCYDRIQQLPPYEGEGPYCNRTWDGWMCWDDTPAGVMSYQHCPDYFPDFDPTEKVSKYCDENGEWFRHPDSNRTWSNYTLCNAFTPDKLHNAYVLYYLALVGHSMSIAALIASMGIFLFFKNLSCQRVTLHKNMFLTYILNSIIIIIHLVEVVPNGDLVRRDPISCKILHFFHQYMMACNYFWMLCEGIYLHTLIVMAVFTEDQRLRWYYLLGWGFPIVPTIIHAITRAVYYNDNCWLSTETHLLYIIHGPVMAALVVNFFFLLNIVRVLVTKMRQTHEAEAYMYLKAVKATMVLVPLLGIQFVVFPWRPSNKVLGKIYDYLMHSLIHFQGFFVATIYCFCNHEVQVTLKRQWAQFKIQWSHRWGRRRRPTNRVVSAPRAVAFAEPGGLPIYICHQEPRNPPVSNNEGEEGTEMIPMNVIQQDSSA
In short: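 Membranes were prepared from BHK tk′ts 13 cells transiently transfected with rat calcitonin receptor. Cells were grown in DMEM with 10% FBS and harvested approximately 48 hours after transfection.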

[3] = ASSAY (IV) determination of solubility; format: physicochemical
In short: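 Polypeptide in water at […] mixed 1:1 with 100 mM buffers of pH 3.0-8.0 (glycylglycine pH 3-5, bistrispropane pH 6-8). Held 18 h at room temperature, then centrifuged; concentration remaining in solution measured by UPLC.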

[4] = bistrispropane buffer, pH 6.5, read-out: Solubility pH 6.5 Concentration
[5] = bistrispropane buffer, pH 7.5, read-out: Solubility pH 7.5 Concentration
[6] = bistrispropane buffer, pH 6.0, read-out: Solubility pH 6.0 Concentration
[7] = bistrispropane buffer, pH 7.0, read-out: Solubility pH 7.0 Concentration
[8] = bistrispropane buffer, pH 8.0, read-out: Solubility pH 8.0 Concentration
[9] = glycylglycine buffer, pH 3.0, read-out: Solubility pH 3.0 Concentration
[10] = glycylglycine buffer, pH 4.0, read-out: Solubility pH 4.0 Concentration
[11] = glycylglycine buffer, pH 5.0, read-out: Solubility pH 5.0 Concentration

Row | SMILES | ThT pH 4.0 lag time (h) [1] | IC50 [2] | solubility at 18 h [3, 4] | solubility at 18 h [3, 5] | solubility at 18 h [3, 6] | solubility at 18 h [3, 7] | solubility at 18 h [3, 8] | solubility at 18 h [3, 9] | solubility at 18 h [3, 10] | solubility at 18 h [3, 11]
1 | CC[C@H](C)[C@H](NC(=O)[C@H](C)NC(=O)CNC(=O)[C@H](Cc1ccccc1)NC(=O)[C@H](CC(N)=O)NC(=O)[C@@H]1CCCN1C(=O)[C@H](CO)NC(=O)[C@H](CO)NC(=O)[C@H](Cc1c[nH]cn1)NC(=O)[C@H](CCCNC(=N)N)NC(=O)[C@H](CC(C)C)NC(=O)[C@H](Cc1ccccc1)NC(=O)[C@H](CC(N)=O)NC(=O)[C@H](C)NC(=O)[C@H](CC(C)C)NC(=O)[C@H](CCCNC(=N)N)NC(=O)[C@H](CCC(N)=O)NC(=O)[C@@H](NC(=O)[C@H](C)NC(=O)[C@@H]1CSSC[C@H](NC(=O)[C@@H](N)CCCCNC(=O)COCCOCCNC(=O)CC[C@H](NC(=O)CCCCCCCCCCCCCCCCCCC(=O)O)C(=O)O)C(=O)N[C@@H](CC(N)=O)C(=O)N[C@@H]([C@@H](C)O)C(=O)N[C@@H](C)C(=O)N[C@@H]([C@@H](C)O)C(=O)N1)[C@@H](C)O)C(=O)N1CCC[C@H]1C(=O)N[C@@H](CO)C(=O)N[C@@H](CO)C(=O)N[C@H](C(=O)N[C@@H](CC(N)=O)C(=O)N[C@H](C(=O)NCC(=O)N[C@@H](CCCNC(=N)N)C(=O)N[C@@H](CC(N)=O)C(=O)N[C@H](C(=O)N[C@@H](Cc1ccc(O)cc1)C(N)=O)[C@@H](C)O)C(C)C)[C@@H](C)O [Example 78] (H-K([AEEA-γGlu-C20 diacid])CNTATCATQRLANFLRHSSPNFGAIPSSTNVGRNTY-NH2; disulfide 2-7 (inferred)) | 13 h | 90.6 nM | ≥ 200 µM | ≥ 200 µM | ≥ 200 µM | ≥ 200 µM | ≥ 200 µM | ≥ 200 µM | ≥ 200 µM | ≥ 200 µM
2 | CC[C@H](C)[C@H](NC(=O)[C@H](C)NC(=O)CNC(=O)[C@H](Cc1ccccc1)NC(=O)[C@H](CC(N)=O)NC(=O)[C@@H]1CCCN1C(=O)[C@H](CO)NC(=O)[C@H](CO)NC(=O)[C@H](Cc1c[nH]cn1)NC(=O)[C@H](CCCNC(=N)N)NC(=O)[C@H](CC(C)C)NC(=O)[C@H](Cc1ccccc1)NC(=O)[C@H](CC(N)=O)NC(=O)[C@H](C)NC(=O)[C@H](CC(C)C)NC(=O)[C@H](CCCNC(=N)N)NC(=O)[C@H](CCC(N)=O)NC(=O)[C@@H](NC(=O)[C@H](C)NC(=O)[C@@H]1CSSC[C@H](NC(=O)[C@@H](N)CCCCNC(=O)COCCOCCNC(=O)CC[C@H](NC(=O)CCCCCCCCCCCCCCCCCCC(=O)O)C(=O)O)C(=O)N[C@@H](CC(N)=O)C(=O)N[C@@H]([C@@H](C)O)C(=O)N[C@@H](C)C(=O)N[C@@H]([C@@H](C)O)C(=O)N1)[C@@H](C)O)C(=O)N1CCC[C@H]1C(=O)N[C@@H](CO)C(=O)N[C@@H](CO)C(=O)N[C@H](C(=O)N[C@@H](CC(N)=O)C(=O)N[C@H](C(=O)NCC(=O)N1CCC[C@H]1C(=O)N[C@@H](CC(N)=O)C(=O)N[C@H](C(=O)N[C@@H](Cc1ccc(O)cc1)C(N)=O)[C@@H](C)O)C(C)C)[C@@H](C)O [Example 50] | 2 h | 5.63 nM | ≥ 200 µM | ≥ 200 µM | ≥ 200 µM | ≥ 200 µM | ≥ 200 µM | ≥ 200 µM | ≥ 200 µM | ≥ 200 µM
3 | CC[C@H](C)[C@H](NC(=O)[C@H](C)NC(=O)CNC(=O)[C@H](Cc1ccccc1)NC(=O)[C@H](CC(N)=O)NC(=O)[C@@H]1CCCN1C(=O)[C@H](CO)NC(=O)[C@H](CO)NC(=O)[C@H](Cc1c[nH]cn1)NC(=O)[C@H](CCCNC(=N)N)NC(=O)[C@H](CC(C)C)NC(=O)[C@H](Cc1ccccc1)NC(=O)[C@H](C)NC(=O)[C@H](C)NC(=O)[C@H](CC(C)C)NC(=O)[C@H](CCCNC(=N)N)NC(=O)[C@H](CCC(N)=O)NC(=O)[C@@H](NC(=O)[C@H](C)NC(=O)[C@@H]1CSSC[C@H](NC(=O)[C@@H](N)CCCCNC(=O)CC[C@H](NC(=O)CCCCCCCCCCCCCCCCCCC(=O)O)C(=O)O)C(=O)N[C@@H](CC(N)=O)C(=O)N[C@@H]([C@@H](C)O)C(=O)N[C@@H](C)C(=O)N[C@@H]([C@@H](C)O)C(=O)N1)[C@@H](C)O)C(=O)N1CCC[C@H]1C(=O)N[C@@H](CO)C(=O)N[C@@H](CO)C(=O)N[C@H](C(=O)N[C@@H](CC(N)=O)C(=O)N[C@H](C(=O)NCC(=O)N[C@@H](Cc1c[nH]cn1)C(=O)N[C@@H](CC(N)=O)C(=O)N[C@H](C(=O)N[C@@H](Cc1ccc(O)cc1)C(N)=O)[C@@H](C)O)C(C)C)[C@@H](C)O [Example 93] (H-K([γGlu-C20 diacid])CNTATCATQRLAAFLRHSSPNFGAIPSSTNVGHNTY-NH2; disulfide 2-7; N-terminus assumed) | 16 h | 131 nM | ≥ 200 µM | ≥ 200 µM | ≥ 200 µM | ≥ 200 µM | ≥ 200 µM | ≥ 200 µM | ≥ 200 µM | ≥ 200 µM

Other lines, results leading:

Row | ThT pH 4.0 lag time (h) [1] | IC50 [2] | solubility at 18 h [3, 4] | solubility at 18 h [3, 5] | solubility at 18 h [3, 6] | solubility at 18 h [3, 7] | solubility at 18 h [3, 8] | solubility at 18 h [3, 9] | solubility at 18 h [3, 10] | solubility at 18 h [3, 11] | SMILES
4 | 8 h | 51.4 nM | ≥ 200 µM | ≥ 200 µM | ≥ 200 µM | ≥ 200 µM | ≥ 200 µM | ≥ 200 µM | ≥ 200 µM | ≥ 200 µM | CC[C@H](C)[C@H](NC(=O)[C@H](C)NC(=O)CNC(=O)[C@H](Cc1ccccc1)NC(=O)[C@H](CC(N)=O)NC(=O)[C@@H]1CCCN1C(=O)[C@H](CO)NC(=O)[C@H](CO)NC(=O)[C@H](Cc1c[nH]cn1)NC(=O)[C@H](CCCNC(=N)N)NC(=O)[C@H](CC(C)C)NC(=O)[C@H](Cc1ccccc1)NC(=O)[C@H](CC(N)=O)NC(=O)[C@H](C)NC(=O)[C@H](CC(C)C)NC(=O)[C@H](CCCNC(=N)N)NC(=O)[C@H](CCC(N)=O)NC(=O)[C@@H](NC(=O)[C@H](C)NC(=O)[C@@H]1CSSC[C@H](NC(=O)[C@@H](N)CCCCNC(=O)COCCOCCNC(=O)CC[C@H](NC(=O)CCCCCCCCCCCCCCCCCCC(=O)O)C(=O)O)C(=O)N[C@@H](CC(N)=O)C(=O)N[C@@H]([C@@H](C)O)C(=O)N[C@@H](C)C(=O)N[C@@H]([C@@H](C)O)C(=O)N1)[C@@H](C)O)C(=O)N1CCC[C@H]1C(=O)N[C@@H](CO)C(=O)N[C@@H](CO)C(=O)N[C@H](C(=O)N1CCC[C@H]1C(=O)N[C@H](C(=O)NCC(=O)N[C@@H](CO)C(=O)N[C@@H](CC(N)=O)C(=O)N[C@H](C(=O)N[C@@H](Cc1ccc(O)cc1)C(N)=O)[C@@H](C)O)C(C)C)[C@@H](C)O [Example 49]
5 | 24 h | 6.25 nM | ≥ 200 µM | ≥ 200 µM | ≥ 200 µM | ≥ 200 µM | 119 µM (≈ 541 µg/mL) | ≥ 200 µM | ≥ 200 µM | ≥ 200 µM | CC[C@H](C)[C@H](NC(=O)[C@H](C)NC(=O)CNC(=O)[C@H](Cc1ccccc1)NC(=O)[C@H](CC(N)=O)NC(=O)[C@@H]1CCCN1C(=O)[C@H](CO)NC(=O)[C@H](CO)NC(=O)[C@H](Cc1c[nH]cn1)NC(=O)[C@H](CCCNC(=N)N)NC(=O)[C@H](CC(C)C)NC(=O)[C@H](Cc1ccccc1)NC(=O)[C@H](CC(N)=O)NC(=O)[C@H](C)NC(=O)[C@H](CC(C)C)NC(=O)[C@H](CCCNC(=N)N)NC(=O)[C@H](CCC(N)=O)NC(=O)[C@@H](NC(=O)[C@H](C)NC(=O)[C@@H]1CSSC[C@H](NC(=O)[C@@H](N)CCCCNC(=O)COCCOCCNC(=O)CC[C@H](NC(=O)CCCCCCCCCCCCCCCCCCC(=O)O)C(=O)O)C(=O)N[C@@H](CC(N)=O)C(=O)N[C@@H]([C@@H](C)O)C(=O)N[C@@H](C)C(=O)N[C@@H]([C@@H](C)O)C(=O)N1)[C@@H](C)O)C(=O)N1CCC[C@H]1C(=O)N1CCC[C@H]1C(=O)N[C@@H](CO)C(=O)N[C@H](C(=O)N[C@@H](CC(N)=O)C(=O)N[C@H](C(=O)NCC(=O)N1CCC[C@H]1C(=O)N[C@@H](CC(N)=O)C(=O)N[C@H](C(=O)N[C@@H](Cc1ccc(O)cc1)C(N)=O)[C@@H](C)O)C(C)C)[C@@H](C)O [Example 55] (H-K([AEEA-γGlu-C20 diacid])CNTATCATQRLANFLRHSSPNFGAIPPSTNVGPNTY-NH2; disulfide 2-7; N-terminus assumed)
